Several values for one entry are separate records, joined by “and”; a condition that tells them apart may be missing. Equal values may be shown once.
Legend:
Test in all cases: Postemergence herbicidal activity, greenhouse, visual injury
Type in all cases: in vivo
[1] = tested on: wild buckwheat (Polygonum convolvulus, POLCO)
Description: (§1) The plants were grown for 7-36 days (d) in a greenhouse with an approximate 14-hour (h) photoperiod which was maintained at about 23° C. during the day and 22° C. during the night. Nutrients and water were added on a regular basis and supplemental lighting was provided with overhead metal halide 1000-Watt lamps as necessary. The plants were employed for testing when they reached the second or third true leaf stage.
(§2) Spray solutions of the experimental compound mixtures were prepared by adding the stock solutions to the appropriate amount of dilution solution to form a 12 mL spray solution in two-way combinations. […] Control plants were sprayed in the same manner with the solvent blank. Application rates for component (a) are in g ae/ha, and application rates for component (b) are in g ai/ha.
(§3) The treated plants and control plants were placed in a greenhouse as described above and watered by sub-irrigation to prevent wash-off of the test compounds. After 20-22 d, the condition of the test plants as compared with that of the control plants was determined visually and scored on a scale of 0 to 100 percent where 0 corresponds to no injury and 100 corresponds to complete kill. […] The Colby method was used to determine the herbicidal effects expected from the mixtures.

[2] = tested on: pigweed (Amaranthus retroflexus, AMARE); settings: post-emergence, read-out: Effect (% visual injury) Obs
Description: as §1, §2, §3

[3] = tested on: velvetleaf (Abutilon theophrasti, ABUTH); settings: post-emergence, read-out: Effect (% visual injury) Obs
Description: as §1, §2, §3

[4] = tested on: grain sorghum (Sorghum vulgare, SORVU); settings: post-emergence, read-out: Effect (% visual injury) Obs
Description: as §1, §2, §3

[5] = tested on: common lambsquarters (Chenopodium album L., CHEAL); settings: post-emergence, read-out: Effect (% visual injury) Obs
Description: as §1, §2, §3

[6] = tested on: winter wheat (Triticum aestivum, TRZAW); settings: post-emergence, read-out: Effect (% visual injury) Obs
Description: as §1, §2, §3

[7] = tested on: soybean (Glycine max, GLXMA); settings: post-emergence, read-out: Effect (% visual injury) Obs
Description: as §1, §2, §3

[8] = tested on: sunflower (Helianthus annuus, HELAN); settings: post-emergence, read-out: Effect (% visual injury) Obs
Description: as §1, §2, §3

[9] = tested on: barnyardgrass (Echinochloa crus-galli, ECHCG); settings: post-emergence, read-out: Effect (% visual injury) Obs
Description: as §1, §2, §3

[10] = tested on: maize (Zea mays, ZEAMX); settings: post-emergence, read-out: Effect (% visual injury) Obs
Description: as §1, §2, §3

[11] = tested on: rice (Oryza sativa, ORYSA); settings: post-emergence, read-out: Effect (% visual injury) Obs
Description: as §1, §2, §3

[12] = tested on: large crabgrass (Digitaria sanguinalis, DIGSA); settings: post-emergence, read-out: Effect (% visual injury) Obs
Description: as §1, §2, §3

[13] = tested on: blackgrass (Alopecurus myosuroides, ALOMY); settings: post-emergence, read-out: Effect (% visual injury) Obs
Description: as §1, §2, §3

[14] = tested on: giant foxtail (Setaria faberi, SETFA); settings: post-emergence, read-out: Effect (% visual injury) Obs
Description: as §1, §2, §3

[15] = tested on: wild oat (Avena fatua, AVEFA); settings: post-emergence, read-out: Effect (% visual injury) Obs
Description: as §1, §2, §3

[16] = tested on: wild pansy (Viola tricolor, VIOTR); settings: post-emergence, read-out: Effect (% visual injury) Obs
Description: as §1, §2, §3

[17] = tested on: winter rape (Brassica napus, BRSNW); settings: post-emergence, read-out: Effect (% visual injury) Obs
Description: (§4) Seeds of the desired test plant species were planted in Sun Gro MetroMix® 306 planting mixture, which typically has a pH of 6.0 to 6.8 and an organic matter content of about 30 percent, in plastic pots with a surface area of 103.2 square centimeters (cm^2). When required to ensure good germination and healthy plants, a fungicide treatment and/or other chemical or physical treatment was applied. The plants were grown for 7-36 days (d) in a greenhouse with an approximate 14-hour (h) photoperiod which was maintained at about 23° C. during the day and 22° C. during the night. Nutrients and water were added on a regular basis and supplemental lighting was provided with overhead metal halide 1000-Watt lamps as necessary. The plants were employed for testing when they reached the second or third true leaf stage.
(§5) An emulsifiable concentrate (EC) formulation containing Compound 1 at 100 gai/L was prepared by combining Compound 1 with 1-butyl-2-pyrrolidinone (Tamisolve NxG; 360.5 g/L), benzyl acetate (544.6 g/L) and Agnique MBL 520L surfactant (52.9 g/L). […] The concentrated stock solution was diluted with an aqueous mixture of 1.5% v/v of Agri-dex crop oil concentrate to provide the appropriate application rates. Compound requirements are based upon a 12 milliliter (mL) application volume at a rate of 187 liters per hectare (L/ha). Spray solutions of the experimental compound mixtures were prepared by adding the stock solutions to the appropriate amount of dilution solution to form a 12 mL spray solution in two-way combinations. Formulated compounds were applied to the plant material with an overhead Mandel track sprayer equipped with 8002E nozzles calibrated to deliver 187 L/ha over an application area of 0.503 square meters (m^2) at a spray height of 18 inches (43 centimeters (cm)) above average plant canopy. Control plants were sprayed in the same manner with the solvent blank. Application rates for component (a) are in g ae/ha, and application rates for component (b) are in g ai/ha.
as §3

[18] = tested on: kochia (Kochia scoparia, KCHSC)
Description: as §4, §5, §3

[19] = tested on: chickweed (Stellaria media, STEME); settings: post-emergence, read-out: Effect (% visual injury) Obs
Description: as §4, §5, §3

[20] = tested on: ivyleaf morningglory (Ipomoea hederacea, IPOHE)
Description: as §4, §5, §3

[21] = tested on: poinsettia (Euphorbia heterophylla, EPHHL)
Description: as §4, §5, §3

[22] = Clodinafop-propargyl 30 g ai/ha

## Nc1c(F)c(-c2ccc3cc[nH]c3c2F)nc(C(=O)O)c1Cl [Compound 1]
[1]; Compound 1 10 g ai/ha
  Effect (% visual injury) Obs: 75%
[1]; Fallopia convolvulus, post-emergence, Compound 1 10 g ai/ha, read-out: Effect (% visual injury) Obs
  pest or weed control at 10 g/ha: 75%
[2]; Compound 1 10 g ai/ha
  pest or weed control at 10 g/ha: 97%
[3]; Compound 1 5 g ai/ha
  pest or weed control at 5 g/ha: 50%
[3]; Compound 1 10 g ai/ha
  pest or weed control at 10 g/ha: 60%
[4]; Compound 1 10 g ai/ha
  plant injury at 10 g/ha: 50%
[5]; Compound 1 5 g ai/ha
  pest or weed control at 5 g/ha: 100%
[5]; Compound 1 10 g ai/ha
  pest or weed control at 10 g/ha: 100%
[6]; Compound 1 5 g ai/ha
  plant injury at 5 g/ha: 0%
[6]; Compound 1 10 g ai/ha
  plant injury at 10 g/ha: 0%
[7]; Compound 1 5 g ai/ha
  plant injury at 5 g/ha: 100%
[7]; Compound 1 10 g ai/ha
  plant injury at 10 g/ha: 100%
[8]; Compound 1 5 g ai/ha
  plant injury at 5 g/ha: 95%
[8]; Compound 1 10 g ai/ha
  plant injury at 10 g/ha: 90%
[9]; Compound 1 10 g ai/ha
  pest or weed control at 10 g/ha: 60%
[10]; Compound 1 5 g ai/ha
  plant injury at 5 g/ha: 0%
[10]; Compound 1 10 g ai/ha
  plant injury at 10 g/ha: 0%
[11]; Compound 1 5 g ai/ha
  plant injury at 5 g/ha: 0%
[11]; Compound 1 10 g ai/ha
  plant injury at 10 g/ha: 10%
[12]; Compound 1 5 g ai/ha
  pest or weed control at 5 g/ha: 0%
[12]; Compound 1 10 g ai/ha
  pest or weed control at 10 g/ha: 10%
[13]; Compound 1 5 g ai/ha
  pest or weed control at 5 g/ha: 0%
[13]; Compound 1 10 g ai/ha
  pest or weed control at 10 g/ha: 0%
[14]; Compound 1 10 g ai/ha
  pest or weed control at 10 g/ha: 50%
[15]; Compound 1 5 g ai/ha
  pest or weed control at 5 g/ha: 0%
[15]; Compound 1 10 g ai/ha
  pest or weed control at 10 g/ha: 0%
[16]; Compound 1 10 g ai/ha
  pest or weed control at 10 g/ha: 10%
[17]; Compound 1 5 g ai/ha
  plant injury at 5 g/ha: 60%
[17]; Compound 1 10 g ai/ha
  plant injury at 10 g/ha: 45%
[18]; Compound 1 5 g ai/ha
  Effect (% visual injury) Obs: 60%
[18]; Compound 1 10 g ai/ha
  Effect (% visual injury) Obs: 60%
[19]; Compound 1 10 g ai/ha
  pest or weed control at 10 g/ha: 70%
[20]; Compound 1 5 g ai/ha
  Effect (% visual injury) Obs: 10%
[21]; Compound 1 5 g ai/ha
  Effect (% visual injury) Obs: 100% and 97%
[21]; Compound 1 10 g ai/ha
  Effect (% visual injury) Obs: 97%

## C#CCOC(=O)[C@@H](C)Oc1ccc(Oc2ncc(Cl)cc2F)cc1 [Clodinafop-propargyl, prop-2-ynyl (R)-2-[4-(5-chloro-3-fluoro-2-pyridyloxy)phenoxy]propionate]
[1]; Fallopia convolvulus, post-emergence, Clodinafop-propargyl 30 g ai/ha, read-out: Effect (% visual injury) Obs
  pest or weed control: 0%
[2]; [22]
  pest or weed control: 0%
[3]; [22]
  pest or weed control: 0%
[4]; [22]
  plant injury: 100%
[6]; [22]
  plant injury: 0%
[7]; [22]
  plant injury: 0%
[8]; [22]
  plant injury: 0%
[9]; [22]
  pest or weed control: 100%
[10]; [22]
  plant injury: 100%
[11]; [22]
  plant injury: 90%
[12]; [22]
  pest or weed control: 95%
[13]; [22]
  pest or weed control: 10%
[14]; [22]
  pest or weed control: 98%
[15]; [22]
  pest or weed control: 90%
[17]; [22]
  plant injury at 30 g/ha: 0%
[19]; [22]
  pest or weed control at 30 g/ha: 0%
[20]; [22]
  Effect (% visual injury) Obs: 0%

## CCCC(=NOCC)C1=C(O)CC(CC(C)SCC)CC1=O (racemic) [Sethoxydim, (±)-(EZ)-2-(1-ethoxyiminobutyl)-5-[2-(ethylthio)propyl]-3-hydroxycyclohex-2-enone]
[1]; Fallopia convolvulus, post-emergence, read-out: Effect (% visual injury) Obs
  pest or weed control at 140 g/ha: 0%
[2]
  pest or weed control at 140 g/ha: 0%
[3]
  pest or weed control at 140 g/ha: 0%
[4]
  plant injury at 140 g/ha: 100%
[5]
  pest or weed control at 140 g/ha: 5%
[6]
  plant injury at 140 g/ha: 60%
[7]
  plant injury at 140 g/ha: 0%
[8]
  plant injury at 140 g/ha: 0%
[9]
  pest or weed control at 140 g/ha: 50%
[10]
  plant injury at 140 g/ha: 75%
[11]
  plant injury at 140 g/ha: 75%
[12]
  pest or weed control at 140 g/ha: 60%
[13]
  pest or weed control at 140 g/ha: 95%
[14]
  pest or weed control at 140 g/ha: 85%
[15]
  pest or weed control at 140 g/ha: 85%
[16]
  pest or weed control at 140 g/ha: 5%
[17]
  plant injury at 140 g/ha: 0%
[18]; Sethoxydim 140 g ai/ha
  Effect (% visual injury) Obs: 0%
[19]
  pest or weed control at 140 g/ha: 10%
[21]; Sethoxydim 140 g ai/ha
  Effect (% visual injury) Obs: 10%
